Results from paper PMC8980814 (The Journal of Biological Chemistry, 2022).

Assays:
Test in all cases: whole-cell patch clamp, HEK-293T
Type in all cases: cell-based
[1] = target: T1, TCaV1 (Trichoplax adhaerens, UniProt A0A8K1XS01); conditions: for inhibition at 10 µM: read-out: % block at 10 μM
[2] = target: T2, rCaV1.2 (Rattus norvegicus, UniProt P22002); conditions: for inhibition at 10 µM: read-out: % block at 10 μM
[3] = target: T2, rCaV1.2; conditions: 3 mM external Ca2+, step from -100 mV to 0 mV, pH 7.4, agonist
[4] = target: T1, TCaV1; conditions: 3 mM external Ca2+, step from -100 mV to 0 mV, pH 7.4, agonist

T2 sequence (P22002 whole entry): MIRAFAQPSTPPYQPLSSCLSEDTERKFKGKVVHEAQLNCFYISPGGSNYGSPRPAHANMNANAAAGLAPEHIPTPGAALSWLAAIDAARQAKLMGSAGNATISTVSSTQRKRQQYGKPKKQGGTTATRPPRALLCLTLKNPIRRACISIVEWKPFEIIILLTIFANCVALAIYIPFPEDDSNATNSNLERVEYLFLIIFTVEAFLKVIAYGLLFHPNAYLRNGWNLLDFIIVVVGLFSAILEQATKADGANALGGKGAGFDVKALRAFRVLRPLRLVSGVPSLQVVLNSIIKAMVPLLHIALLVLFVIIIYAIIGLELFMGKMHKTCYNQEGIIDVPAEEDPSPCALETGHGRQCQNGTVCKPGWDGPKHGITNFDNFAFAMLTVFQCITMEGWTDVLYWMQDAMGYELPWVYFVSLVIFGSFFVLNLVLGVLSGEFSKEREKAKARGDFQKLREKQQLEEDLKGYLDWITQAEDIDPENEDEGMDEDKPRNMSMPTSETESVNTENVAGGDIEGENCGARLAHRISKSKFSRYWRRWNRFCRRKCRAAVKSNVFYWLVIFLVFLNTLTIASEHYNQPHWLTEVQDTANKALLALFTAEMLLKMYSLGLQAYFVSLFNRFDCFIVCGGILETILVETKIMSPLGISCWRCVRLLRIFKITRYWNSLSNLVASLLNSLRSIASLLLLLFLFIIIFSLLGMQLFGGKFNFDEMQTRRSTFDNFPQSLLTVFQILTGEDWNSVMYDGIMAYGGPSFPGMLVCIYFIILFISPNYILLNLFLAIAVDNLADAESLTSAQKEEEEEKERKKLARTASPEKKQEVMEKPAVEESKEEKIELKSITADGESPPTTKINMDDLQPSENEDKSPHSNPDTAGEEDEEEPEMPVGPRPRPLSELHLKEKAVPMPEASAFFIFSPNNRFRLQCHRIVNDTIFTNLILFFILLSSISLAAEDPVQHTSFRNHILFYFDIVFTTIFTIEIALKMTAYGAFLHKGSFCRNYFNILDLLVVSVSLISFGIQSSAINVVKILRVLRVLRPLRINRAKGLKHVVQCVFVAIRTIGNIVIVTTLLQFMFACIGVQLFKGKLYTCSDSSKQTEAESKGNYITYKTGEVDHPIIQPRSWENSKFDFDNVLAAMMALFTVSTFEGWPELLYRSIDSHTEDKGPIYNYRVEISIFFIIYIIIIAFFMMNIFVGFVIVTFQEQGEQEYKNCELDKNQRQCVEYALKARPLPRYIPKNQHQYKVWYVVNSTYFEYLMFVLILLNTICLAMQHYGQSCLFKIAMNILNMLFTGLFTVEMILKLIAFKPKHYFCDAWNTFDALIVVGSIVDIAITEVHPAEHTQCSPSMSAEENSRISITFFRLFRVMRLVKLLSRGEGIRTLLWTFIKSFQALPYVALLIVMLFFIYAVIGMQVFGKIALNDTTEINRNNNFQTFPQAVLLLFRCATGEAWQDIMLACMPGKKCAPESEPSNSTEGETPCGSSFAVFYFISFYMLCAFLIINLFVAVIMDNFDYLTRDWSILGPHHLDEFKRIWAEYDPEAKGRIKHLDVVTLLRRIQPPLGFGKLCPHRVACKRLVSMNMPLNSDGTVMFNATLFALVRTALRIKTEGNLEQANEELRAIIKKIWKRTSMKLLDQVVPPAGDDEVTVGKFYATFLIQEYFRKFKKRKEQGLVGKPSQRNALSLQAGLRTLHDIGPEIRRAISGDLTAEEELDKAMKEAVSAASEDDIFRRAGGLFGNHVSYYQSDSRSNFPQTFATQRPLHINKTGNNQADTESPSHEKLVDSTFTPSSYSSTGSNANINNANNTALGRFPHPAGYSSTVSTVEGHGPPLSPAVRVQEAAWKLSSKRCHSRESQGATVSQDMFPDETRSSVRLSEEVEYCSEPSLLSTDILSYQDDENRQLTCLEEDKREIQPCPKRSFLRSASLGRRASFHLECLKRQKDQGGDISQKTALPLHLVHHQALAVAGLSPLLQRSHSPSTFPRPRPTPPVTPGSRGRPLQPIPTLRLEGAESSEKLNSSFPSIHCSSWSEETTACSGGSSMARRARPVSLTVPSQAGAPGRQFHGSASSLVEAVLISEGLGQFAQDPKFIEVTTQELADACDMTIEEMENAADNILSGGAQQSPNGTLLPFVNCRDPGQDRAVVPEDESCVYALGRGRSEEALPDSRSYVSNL
T2 sequence (P54283 whole entry partner): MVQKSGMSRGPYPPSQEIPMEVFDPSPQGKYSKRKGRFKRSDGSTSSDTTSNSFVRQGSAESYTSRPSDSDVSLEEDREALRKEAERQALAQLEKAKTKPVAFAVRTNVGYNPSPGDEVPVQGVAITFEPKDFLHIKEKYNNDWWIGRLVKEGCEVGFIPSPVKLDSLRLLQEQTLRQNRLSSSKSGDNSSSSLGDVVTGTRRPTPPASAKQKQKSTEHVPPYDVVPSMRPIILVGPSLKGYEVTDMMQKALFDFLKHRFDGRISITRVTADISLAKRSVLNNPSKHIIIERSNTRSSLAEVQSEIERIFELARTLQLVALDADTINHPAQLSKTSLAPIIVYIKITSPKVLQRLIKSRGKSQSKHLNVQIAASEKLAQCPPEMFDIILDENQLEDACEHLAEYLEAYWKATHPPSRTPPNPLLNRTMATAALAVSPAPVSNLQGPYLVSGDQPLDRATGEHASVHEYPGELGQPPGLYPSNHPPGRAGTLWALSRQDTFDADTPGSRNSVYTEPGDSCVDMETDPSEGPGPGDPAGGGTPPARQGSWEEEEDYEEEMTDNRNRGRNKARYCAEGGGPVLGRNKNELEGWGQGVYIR
T2 sequence (P54290 25-944 partner): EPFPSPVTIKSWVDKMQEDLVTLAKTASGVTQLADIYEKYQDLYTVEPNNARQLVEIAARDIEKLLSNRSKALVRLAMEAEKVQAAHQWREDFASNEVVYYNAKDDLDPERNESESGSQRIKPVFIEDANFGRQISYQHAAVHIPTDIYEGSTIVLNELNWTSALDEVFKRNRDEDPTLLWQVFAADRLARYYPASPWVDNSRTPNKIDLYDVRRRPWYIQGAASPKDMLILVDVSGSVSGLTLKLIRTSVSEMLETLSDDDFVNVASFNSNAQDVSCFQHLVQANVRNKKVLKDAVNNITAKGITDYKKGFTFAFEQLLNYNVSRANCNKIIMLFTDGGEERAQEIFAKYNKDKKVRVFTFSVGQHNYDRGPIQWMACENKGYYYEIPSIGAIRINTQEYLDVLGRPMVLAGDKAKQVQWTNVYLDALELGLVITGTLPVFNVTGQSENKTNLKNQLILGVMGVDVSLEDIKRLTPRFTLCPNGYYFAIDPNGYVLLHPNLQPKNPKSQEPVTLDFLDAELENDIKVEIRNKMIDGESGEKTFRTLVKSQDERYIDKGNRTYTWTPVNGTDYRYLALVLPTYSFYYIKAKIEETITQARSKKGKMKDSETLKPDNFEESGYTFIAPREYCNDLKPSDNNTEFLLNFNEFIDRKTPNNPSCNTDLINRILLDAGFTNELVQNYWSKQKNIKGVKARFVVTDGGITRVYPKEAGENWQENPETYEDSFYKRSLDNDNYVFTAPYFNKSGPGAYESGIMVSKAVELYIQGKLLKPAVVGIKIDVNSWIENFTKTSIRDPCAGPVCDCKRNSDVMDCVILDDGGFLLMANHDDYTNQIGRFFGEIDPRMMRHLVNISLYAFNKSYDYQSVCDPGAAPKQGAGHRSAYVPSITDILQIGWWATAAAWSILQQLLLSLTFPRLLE
T2 sequence (P54290 945-1091 partner): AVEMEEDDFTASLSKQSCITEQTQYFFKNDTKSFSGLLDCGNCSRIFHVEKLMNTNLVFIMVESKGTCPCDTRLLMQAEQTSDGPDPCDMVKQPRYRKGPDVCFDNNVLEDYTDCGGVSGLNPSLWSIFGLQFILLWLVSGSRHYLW

Structure (SMILES) | inhibition at 10 µM [1] | inhibition at 10 µM [2] | also measured
COC(=O)C1=C(C)NC(C)=C([N+](=O)[O-])[C@@H]1c1ccccc1C(F)(F)F [R(+)BayK 8644] | – | – | inhibition at 100 µM ([1]; read-out: % block at 100 μM): 74.2 ± 0.05%; inhibition at 100 µM ([2]; read-out: % block at 100 μM): 97.3 ± 0.01%
COC(=O)C1=C(C)NC(C)=C(C(=O)OC(C)C)C1c1cccc2nonc12 (centres unmarked) [isradipine] | 11.5 ± 2.2% | 95 ± 6.1% | –
COC(=O)C1=C(C)NC(C)=C(C(=O)OC)C1c1ccccc1[N+](=O)[O-] [nifedipine] | 5.8 ± 3.6% | 99.7 ± 0.1% | –
COC(=O)C1=C(C)NC(C)=C([N+](=O)[O-])[C@H]1c1ccccc1C(F)(F)F [S(-)BayK 8644] | – | – | fold-increase in peak current at 5 μM [3]: 1.64 ± 0.32 fold; fold-increase in peak current at 5 μM [4]: 1.11 ± 0.024 fold
